In US8716242B2, “β-hairpin peptidomimetics” (priority 2009, dated 2014):
Numbered stars: 1 amine (or outer) side, 2 acyl side, 3 side chain; on linkers, the order of the positions; unused ones are H or OH. Bridge positions count the residues as written; N and C are the ends. Square brackets hold non-standard residues; d marks the D form. Side chains are listed from the residue outwards. Peptide text beside a SMILES is read from it. * marks the point of attachment. γGlu = O=C(O)[C@H](CCC(=O)[*:2])N[*:1]; Palmitoyl = CCCCCCCCCCCCCCCC(=O)*; Lauroyl = CCCCCCCCCCCC(=O)*; Dab = NCC[C@H](N)C(=O)O

Assay: in vivo
Design: species or system male CD-1 mice
Conditions: for bioavailability / AUC(0-inf) / Cmax / Tmax / half-life / level at 0.083 h / level at 0.25 h / level at 0.5 h / level at 1 h / level at 2 h / level at 4 h / level at 8 h / level at 12 h / level at 24 h: male, CD-1, mouse; for AUC0-∞ dcor. / Cmax dcor.: mouse
Procedure: 2.7. Pharmacokinetic Study (PK)
Pharmacokinetic study after intravenous (i.v.) and subcutaneous (s.c.) administration was performed for the compounds of Ex. 17, Ex. 20, Ex. 25, Ex. 26, Ex. 28, and Ex. 29. […] The compounds of Ex. 17, Ex. 25, Ex. 26, Ex. 28, and Ex. 29 were administered i.v. and s.c. as a cassette whereas for the compound of Ex. 20a single i.v. and s.c. administration was accomplished.
30 grams (±20%) male CD-1 mice obtained from Janvier, France, were used in the study testing the cassette compounds. The vehicle, phosphate buffered saline containing 5% DMSO, was added to give a final concentration of 0.5 mg/mL of the compounds (i.v. route and s.c. route). The volume was 2 mL/kg i.v. and 10 mL/kg s.c. and the cassette compounds were injected to give a final intravenous dose of 1 mg/kg and an subcutaneous dose of 5 mg/kg. Approximately 500 μL of blood were removed from the opened heart at predetermined time intervals (5, 15, 30 min and 1, 2, 4, 8 and 12 hours for the i.v. study and 5, 15, 30 min and 1, 2, 4, 8, 12 and 24 hours for the s.c. study) and added to heparinized tubes. Plasma was removed from pelleted cells upon centrifugation and frozen at −80° C. prior to HPLC-MS analysis. For the compound of Ex. 20 30 grams (±20%) male CD-1 mice obtained from Charles River Laboratories Deutschland GmbH were used. The vehicle, phosphate buffered saline, was added to give a final concentration of 0.2 mg/mL of the compound (i.v. route) and 1 mg/mL (s.c. route). The volume was 5 mL/kg i.v. and s.c. and the compound was injected to give a final intravenous dose of 1 mg/kg and an subcutaneous dose of 5 mg/kg. Approximately 300-400 μL of blood was removed under light isoflurane anesthesia by cardiac puncture at predetermined time intervals (5, 15, 30 min and 1, 2, 3, 4, 6, 12 hours for the i.v. study and 15, min and 1, 2, 4, 6, 8, 12 and 24 hours for the s.c. study) and added to heparinized tubes. Plasma was removed from pelleted cells upon centrifugation and frozen at −80° C. prior to HPLC-MS analysis.
Preparation of the Plasma Calibration Samples
“Blank” mouse plasma from untreated animals was used. Aliquots of plasma of 0.2 mL each were spiked with 50 ng of propranolol (Internal Standard, IS), (sample preparation by solid phase extraction on OASIS® HLB cartridges [Waters]) and with known amounts of Ex. 20 in order to obtain 9 plasma calibration samples in the range 10-5000 nM. The OASIS® HLB cartridges were conditioned with 1 mL of methanol and then with 1 mL of 1% NH3 in water. Samples were then diluted with 700 μL of 1% NH3 in water and loaded. The plate was washed with 1 mL of methanol/1% NH3 in water 5/95 (v/v). Elution was performed using 1 mL of 0.1% TFA in methanol.
The plate containing eluates was introduced into the concentrator system and taken to dryness. The residues were dissolved in 100 μL of formic acid 0.1%/acetonitrile, 95/5 (v/v) and analysed in the HPLC/MS on a reverse phase analytical column (Jupiter C18, 50×2.0 mm, 5 μm, Phenomenex), using gradient elution (mobile phases A: 0.1% formic acid in water, B: acetonitrile; from 5% B to 100% B in 2 min.).
Preparation of Plasma Samples
Samples coming from animal treatments were pooled in order to obtain an appropriate volume for the extraction. If the total volume obtained was less than 0.2 mL the appropriate amount of “blank” mouse plasma was added in order to keep the matrix identical to the calibration curve. Samples were than spiked with IS and processed as described for the calibration curve.
Pharmacokinetic Evaluation
In order to perform PK analysis pooled plasma data (n=3 mice) was used. PK parameters were calculated by WinNonLin™ software version 5.2.1 (Pharsight—A Certara™ Company, Mountain View, Calif. 94041 USA) using non-compartmental analysis with a linear up/log down trapezoidal calculation method. For the terminal elimination phase at least 3 time points and a correlation coefficient greater than 0.85 was used. […]

## CCCCCCCCCCCC(=O)N[C@@H](CCC(=O)NCCCC[C@@H]1NC(=O)[C@H](Cc2ccc(O)cc2)NC(=O)[C@@H]2CSSC[C@H](NC(=O)[C@H](C)NC(=O)[C@H](Cc3c[nH]cn3)NC(=O)[C@H](Cc3ccc(O)cc3)NC(=O)[C@@H]3CCCN3C(=O)[C@H]3CCCN3C(=O)[C@H](CCCCN)NC1=O)C(=O)N[C@@H](CCCNC(=N)N)C(=O)N[C@@H](C)C(=O)N1CCC[C@@H]1C(=O)N[C@@H](CCN)C(=O)N[C@@H](CCCNC(=N)N)C(=O)N[C@@H](Cc1ccc(O)cc1)C(=O)N2)C(=O)O [Ex. 26] (cyclo(YHACRA[dP][Dab]RYCYK([γGlu-Lauroyl])K[dP]P); disulfide 4-11)
  bioavailability: 142%
iv, 1 mg/kg
  AUC(0-inf): 3400 ng·h/mL
  Cmax: 3470 ng/mL
  Tmax: 0.1 h
  half-life: 1.3 h
  level at 0.083 h: 3470 ng/mL
  level at 0.25 h: 2530 ng/mL
  level at 0.5 h: 1980 ng/mL
  level at 1 h: 1540 ng/mL
  level at 2 h: 219 ng/mL
  level at 4 h: 98 ng/mL
  level at 8 h: 10 ng/mL
  AUC0-∞ dcor.: 3395.6 kg·ng·h/mg/mL
  Cmax dcor.: 3467.0 kg·ng/mg/mL
sc, 5 mg/kg
  AUC(0-inf): 24000 ng·h/mL
  Cmax: 3990 ng/mL
  Tmax: 2 h
  half-life: 2.9 h
  level at 0.25 h: 221 ng/mL
  level at 0.5 h: 779 ng/mL
  level at 1 h: 1750 ng/mL
  level at 2 h: 3990 ng/mL
  level at 4 h: 2530 ng/mL
  level at 8 h: 1600 ng/mL
  level at 12 h: 524 ng/mL
  level at 24 h: 23 ng/mL
  AUC0-∞ dcor.: 4806.6 kg·ng·h/mg/mL
  Cmax dcor.: 797.4 kg·ng/mg/mL

## CCCCCCCCCCCCCCCC(=O)N[C@@H](CCC(=O)NCCCC[C@@H]1NC(=O)[C@H](Cc2ccc(O)cc2)NC(=O)[C@@H]2CSSC[C@H](NC(=O)[C@H](Cc3ccc(O)cc3)NC(=O)[C@H](Cc3c[nH]cn3)NC(=O)[C@H](Cc3ccc(O)cc3)NC(=O)[C@@H]3CCCN3C(=O)[C@H]3CCCN3C(=O)[C@H](CCCCN)NC1=O)C(=O)N[C@@H](CO)C(=O)N[C@@H](C)C(=O)N1CCC[C@@H]1C(=O)N[C@@H](CCN)C(=O)N[C@@H](CCCNC(=N)N)C(=O)N[C@@H](Cc1ccc(O)cc1)C(=O)N2)C(=O)O [Ex. 29] (cyclo(YHYCSA[dP][Dab]RYCYK([γGlu-Palmitoyl])K[dP]P); disulfide 4-11)
  bioavailability: 151%
iv, 1 mg/kg
  AUC(0-inf): 2940 ng·h/mL
  Cmax: 2320 ng/mL
  Tmax: 0.1 h
  half-life: 3.6 h
  level at 0.083 h: 2320 ng/mL
  level at 0.25 h: 1820 ng/mL
  level at 0.5 h: 1730 ng/mL
  level at 1 h: 1500 ng/mL
  level at 2 h: 87 ng/mL
  level at 4 h: 114 ng/mL
  level at 8 h: 35 ng/mL
  level at 12 h: 16 ng/mL
  AUC0-∞ dcor.: 2945.0 kg·ng·h/mg/mL
  Cmax dcor.: 2317.0 kg·ng/mg/mL
sc, 5 mg/kg
  AUC(0-inf): 22200 ng·h/mL
  Cmax: 1600 ng/mL
  Tmax: 8 h
  half-life: 4.7 h
  level at 0.25 h: 9 ng/mL
  level at 0.5 h: 41 ng/mL
  level at 1 h: 137 ng/mL
  level at 2 h: 1050 ng/mL
  level at 4 h: 958 ng/mL
  level at 8 h: 1600 ng/mL
  level at 12 h: 1430 ng/mL
  level at 24 h: 175 ng/mL
  AUC0-∞ dcor.: 4436.2 kg·ng·h/mg/mL
  Cmax dcor.: 320.6 kg·ng/mg/mL
